Among the data in patent publication US12084434B2 (Scorpion Therapeutics, Inc., priority 2021, dated 2024) are Kd and IC50 values, retold here.

For assay [1], the target named is T1, PI3Kα H1047R protein (p110-α H1047R complexed with truncated p85-α) (Homo sapiens, UniProt P42336, H1047R).
T1 construct: The protein contained a full-length p110-α subunit harboring the H1047R mutation
Description: Surface Plasmon Resonance (SPR) binding, wortmannin-blocked protein. The note with it: Biacore 8K, ATP site blocked with 1 μM wortmannin, 25° C. The procedure: Surface Plasmon Resonance (SPR)
SPR experiments were performed on a Biacore 8K instrument. A biotinylated recombinant PI3Kα H1047R protein was used in this study. The protein contained a full-length p110-α subunit harboring the H1047R mutation with an N-terminal AviTag, complexed with a truncated p85-α subunit (amino acid residues 322-694). The protein was first incubated with 1 μM wortmannin for 30 min at RT to covalently block the ATP binding site, then immobilized onto a streptavidin sensor chip by flowing the protein through the sensor chip at typically 20 μg/mL concentration and 2 μL/min flow rate for 1200 seconds. Compound binding affinities were measured in the multi-cycle kinetics mode, at 90 μL/min flow rate with 90 seconds association time and 240 seconds dissociation time. The running buffer contained 50 mM Tris, pH 7.5, 150 mM NaCl, 0.01% Brij35, 1 mM DTT, 1 mM MgCl2, 0.05% Tween-20 and 2% DMSO. Temperature was maintained at 25° C. during experiments.

The subject of assay [2] is T47D pAKT (S473), PI3Kα H1047R mutation present. Description: HTRF pAKT-T47D.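 Note: assay medium was RPMI with 10% FBS and 0.2 units/ml bovine insulin, without phenol red.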 On the technique in general: In TR-FRET formats the signal depends on donor and acceptor labels being close together.
Where [3] appears, read: Homo sapiens, T47D, 1 h, read-out: T47D pAKT IC50 (nM), T47D.1 cells, pAKT (S473) HTRF, 1 hour.
Setting [4] is: read-out: T47D pAKT IC50, T47D.1 cells, pAKT (S473) HTRF, 1 hour.

Like-named read-outs stand apart in the source and are kept apart here.

T1 sequence (P42336 whole entry H1047R, the tested form may be a part): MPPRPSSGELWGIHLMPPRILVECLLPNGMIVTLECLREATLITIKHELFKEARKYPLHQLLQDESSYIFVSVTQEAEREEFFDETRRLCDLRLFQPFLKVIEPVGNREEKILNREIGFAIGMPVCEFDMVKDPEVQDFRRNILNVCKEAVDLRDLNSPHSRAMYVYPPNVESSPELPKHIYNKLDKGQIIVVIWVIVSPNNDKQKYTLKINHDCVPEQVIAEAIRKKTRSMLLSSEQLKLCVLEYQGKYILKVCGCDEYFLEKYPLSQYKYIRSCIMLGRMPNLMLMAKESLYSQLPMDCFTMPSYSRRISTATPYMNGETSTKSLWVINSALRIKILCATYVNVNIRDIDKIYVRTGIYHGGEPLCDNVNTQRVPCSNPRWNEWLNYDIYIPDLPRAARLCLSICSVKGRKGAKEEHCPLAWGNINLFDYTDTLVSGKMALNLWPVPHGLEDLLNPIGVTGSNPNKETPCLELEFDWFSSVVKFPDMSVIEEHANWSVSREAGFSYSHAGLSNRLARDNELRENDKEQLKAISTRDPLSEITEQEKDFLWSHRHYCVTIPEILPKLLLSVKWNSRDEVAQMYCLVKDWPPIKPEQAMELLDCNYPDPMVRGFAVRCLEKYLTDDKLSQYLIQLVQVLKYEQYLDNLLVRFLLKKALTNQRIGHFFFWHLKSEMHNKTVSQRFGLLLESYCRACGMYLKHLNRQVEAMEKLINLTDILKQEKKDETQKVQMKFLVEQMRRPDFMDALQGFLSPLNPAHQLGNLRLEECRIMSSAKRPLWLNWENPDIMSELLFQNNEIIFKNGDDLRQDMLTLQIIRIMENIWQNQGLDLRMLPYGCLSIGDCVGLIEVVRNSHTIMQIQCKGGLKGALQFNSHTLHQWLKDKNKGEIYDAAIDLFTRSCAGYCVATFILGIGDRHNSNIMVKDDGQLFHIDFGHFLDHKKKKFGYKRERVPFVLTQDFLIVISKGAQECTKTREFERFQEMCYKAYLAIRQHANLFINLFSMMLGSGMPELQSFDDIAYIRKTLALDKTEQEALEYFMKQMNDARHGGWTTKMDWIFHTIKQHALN
T1 sequence (P27986 322-694 partner limits assumed): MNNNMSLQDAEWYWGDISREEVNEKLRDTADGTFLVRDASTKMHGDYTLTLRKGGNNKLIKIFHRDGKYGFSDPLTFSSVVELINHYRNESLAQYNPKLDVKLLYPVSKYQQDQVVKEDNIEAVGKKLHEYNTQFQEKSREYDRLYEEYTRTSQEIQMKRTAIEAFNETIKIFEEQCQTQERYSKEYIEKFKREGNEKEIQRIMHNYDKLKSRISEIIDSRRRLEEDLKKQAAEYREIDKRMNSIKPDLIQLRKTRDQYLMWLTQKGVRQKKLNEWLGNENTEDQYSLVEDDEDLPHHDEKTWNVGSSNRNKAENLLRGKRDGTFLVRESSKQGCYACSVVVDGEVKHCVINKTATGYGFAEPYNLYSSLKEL

Regarding `CC(C)C(NC(=O)Nc1cccc(C(N)=O)c1)c1cc2cc(F)ccc2o1` (racemic) [Compound 50, 3-(3-(1-(5-fluorobenzofuran-2-yl)-2-methylpropyl)ureido)benzamide], in assay [1], the equilibrium dissociation constant (Kd) (in general, a measure of binding affinity in units of concentration) was 100 to 250 nM. Besides, in assay [2] (setting [3]), the IC50 (commonly the concentration needed to halve the response being measured) is over 5000 nM.

Consider `Cc1c(C(NC(=O)Nc2cccc(C(N)=O)c2)C(C)C)oc2ccc(F)c(F)c12` (racemic) [Compound 54, 3-(3-(1-(4,5-difluoro-3-methylbenzofuran-2-yl)-2-methylpropyl)ureido)benzamide], for which the equilibrium dissociation constant (Kd) in assay [1] was in the range of 100 to 250 nM. The IC50 in assay [2] (setting [3]) was over 5000 nM.

On to `Cc1c(C(NC(=O)Nc2cnc(N)nc2)C(F)(F)F)oc2ccc(F)cc12` (racemic) [Compound 68, 1-(2-aminopyrimidin-5-yl)-3-(2,2,2-trifluoro-1-(5-fluoro-3-methylbenzofuran-2-yl)ethyl)urea], for which the Kd in assay [1] was under 100 nM. Further, the IC50 in assay [2] (setting [3]) is under 1000 nM.

`Cc1c([C@@H](NC(=O)N[C@H]2CCCN(S(C)(=O)=O)C2)C(C)C)oc2ccc(F)cc12` (single isomer, unassigned) [Compound 20]: in assay [1], the Kd fell in the range of 100 to 250 nM. Also, the IC50 in assay [2] (setting [3]) was in the range of 1000 to 5000 nM.

For the molecule `Cc1c([C@@H](NC(=O)Nc2cccc(S(C)(=N)=O)c2)C(C)C)oc2ccc(F)cc12` (single isomer, unassigned) [Compound 29], in assay [1], the dissociation constant Kd was 100 to 250 nM. Besides, in assay [2] (setting [3]), the half-inhibitory concentration (IC50) was in the range of 1000 to 5000 nM.

For the molecule `Cc1c([C@@H](NC(=O)Nc2cccc(S(C)(=N)=O)c2)C(C)C)oc2ccc(F)cc12` (single isomer, unassigned) [Compound 30], the Kd in assay [1] was in the range of 100 to 250 nM. Further, in assay [2] (setting [4]), the concentration for half-maximal inhibition (IC50) lay within 1000 to 5000 nM.

For `Cc1c([C@@H](NC(=O)N[C@@H]2CCC[C@@H](C(N)=O)C2)C(C)C)oc2ccc(F)cc12` (single isomer, unassigned) [Compound 32], in assay [1], the equilibrium dissociation constant (Kd) was 100 to 250 nM. In addition, the IC50 in assay [2] (setting [3]) was over 5000 nM.

As to `COC(=O)N1CCC(NC(=O)NC(c2oc3ccc(F)cc3c2C)C(C)C)CC1` (single isomer, unassigned) [Compound 36], the equilibrium dissociation constant (Kd) in assay [1] is at least 500 nM. For the same molecule, the 50% inhibitory concentration (IC50) in assay [2] (setting [3]) is over 5000 nM.

Consider `Cc1c(C(NC(=O)Nc2cnc(N3CCC3)nc2)C(F)(F)F)oc2ccc(F)cc12` (single isomer, unassigned) [Compound 69, 1-(2-(azetidin-1-yl)pyrimidin-5-yl)-3-(2,2,2-trifluoro-1-(5-fluoro-3-methylbenzofuran-2-yl)ethyl)urea], for which the Kd in assay [1] is under 100 nM. Further, in assay [2] (setting [3]), the IC50 is under 1000 nM.

On to `Cc1c([C@@H](NC(=O)Nc2cccnc2)C(C)C)oc2ccc(F)cc12` [Compound 1, (S)-1-(1-(5-fluoro-3-methylbenzofuran-2-yl)-2-methylpropyl)-3-(pyridin-3-yl)urea], for which, in assay [1], the Kd was 250 to 500 nM. Besides, the IC50 in assay [2] (setting [3]) was in the range of 1000 to 5000 nM.

Consider `Cc1c([C@H](C)NC(=O)Nc2cccc(C(N)=O)c2)oc2ccc(F)cc12` [Compound 3, (S)-3-(3-(1-(5-fluoro-3-methylbenzofuran-2-yl)ethyl)ureido) benzamide], for which, in assay [1], the Kd was at least 500 nM. Further, the concentration for half-maximal inhibition (IC50) in assay [2] (setting [3]) was over 5000 nM.

With `Cc1c([C@@H](C)NC(=O)Nc2ccc(C(N)=O)cc2)oc2ccc(F)cc12` [Compound 4, (R)-4-(3-(1-(5-fluoro-3-methylbenzofuran-2-yl)ethyl)ureido)benzamide], in assay [1], the Kd was at least 500 nM.

With `Cc1c([C@@H](NC(=O)N[C@H]2CC[C@H](O)CC2)C(C)C)oc2ccc(F)cc12` [Compound 6, 1-((S)-1-(5-fluoro-3-methylbenzofuran-2-yl)-2-methylpropyl)-3-((1r,4S)-4-hydroxycyclohexyl)urea], in assay [1], the dissociation constant (Kd) was 250 to 500 nM.

In the case of `Cc1c([C@@H](NC(=O)N[C@H]2CC[C@H](O)CC2)C(C)C)oc2cccc(F)c12` [Compound 7, 1-((S)-1-(4-fluoro-3-methylbenzofuran-2-yl)-2-methylpropyl)-3-((1r, 4S)-4-hydroxycyclohexyl)urea], the dissociation constant Kd in assay [1] is at least 500 nM.

Take `Cc1c([C@@H](NC(=O)Nc2ccc(S(C)(=O)=O)cc2)C(C)C)oc2ccccc12` [Compound 9, (S)-1-(2-methyl-1-(3-methylbenzofuran-2-yl)propyl)-3-(4-(methylsulfonyl)phenyl)urea]: in assay [1], the dissociation constant (Kd) was 250 to 500 nM.

Turning to `Cc1c([C@@H](C)NC(=O)Nc2ccc(S(N)(=O)=O)cc2)oc2ccc(F)cc12` [Compound 12, (R)-4-(3-(1-(5-fluoro-3-methylbenzofuran-2-yl)ethyl)ureido) benzenesulfonamide], the Kd in assay [1] was at least 500 nM. Also, the half-maximal inhibitory concentration (IC50) in assay [2] (setting [4]) was in the range of 1000 to 5000 nM.

`CCS(=O)(=O)c1ccc(NC(=O)N[C@H](C)c2oc3ccc(F)cc3c2C)cc1` [Compound 13, (R)-1-(4-(ethylsulfonyl)phenyl)-3-(1-(5-fluoro-3-methylbenzofuran-2-yl)ethyl)urea]: the Kd in assay [1] is at least 500 nM. Further, in assay [2] (setting [3]), the IC50 is over 5000 nM.

Consider `Cc1c([C@@H](NC(=O)Nc2ccc(S(C)(=O)=O)cc2)C2CC2)oc2ccc(F)cc12` [Compound 16, (S)-1-(cyclopropyl(5-fluoro-3-methylbenzofuran-2-yl)methyl)-3-(4-(methylsulfonyl)phenyl)urea], for which, in assay [1], the Kd was at least 500 nM.

As for `Cc1c([C@@H](NC(=O)Nc2cccc(S(N)(=O)=O)c2)C(C)C)oc2ccc(F)cc12` [Compound 17, (S)-3-(3-(1-(5-fluoro-3-methylbenzofuran-2-yl)-2-methylpropyl)ureido)benzenesulfonamide], the dissociation constant (Kd) in assay [1] is 250 to 500 nM.

Turning to `Cc1c([C@@H](NC(=O)Nc2cccc(C(=O)N(C)C)c2)C(C)C)oc2ccc(F)cc12` [Compound 22, (S)-3-(3-(1-(5-fluoro-3-methylbenzofuran-2-yl)-2-methylpropyl)ureido)-N,N-dimethylbenzamide], the Kd in assay [1] was under 100 nM. The IC50 in assay [2] (setting [3]) fell in the range of 1000 to 5000 nM.

For `CNC(=O)c1cccc(NC(=O)N[C@H](c2oc3ccc(F)cc3c2C)C(C)C)c1` [Compound 23, (S)-3-(3-(1-(5-fluoro-3-methylbenzofuran-2-yl)-2-methylpropyl)ureido)-N-methylbenzamide], the dissociation constant Kd in assay [1] lay in the range of 250 to 500 nM. Further, the IC50 in assay [2] (setting [3]) fell in the range of 1000 to 5000 nM.

For the molecule `Cc1c([C@@H](NC(=O)Nc2cncc(C(N)=O)c2)C(C)C)oc2ccc(F)cc12` [Compound 24, (S)-5-(3-(1-(5-fluoro-3-methylbenzofuran-2-yl)-2-methylpropyl)ureido) nicotinamide], in assay [1], the Kd is under 100 nM. For the same molecule, in assay [2] (setting [3]), the IC50 was under 1000 nM.

In the case of `Cc1c([C@@H](NC(=O)Nc2cncc(S(C)(=O)=O)c2)C(C)C)oc2ccc(F)cc12` [Compound 27, (S)-1-(1-(5-fluoro-3-methylbenzofuran-2-yl)-2-methylpropyl)-3-(5-(methylsulfonyl)pyridin-3-yl)urea], the dissociation constant Kd in assay [1] is under 100 nM. The half-inhibitory concentration (IC50) in assay [2] (setting [3]) is under 1000 nM.

In the case of `Cc1c([C@@H](NC(=O)Nc2cccc(S(C)(=N)=O)c2)C(C)C)oc2ccc(F)cc12` (stereo partly drawn) [Compound 28, 1-((S)-1-(5-fluoro-3-methylbenzofuran-2-yl)-2-methylpropyl)-3-(3-(S-methylsulfonimidoyl)phenyl)urea], the Kd in assay [1] was 100 to 250 nM.

For `Cc1c([C@@H](NC(=O)N[C@H]2CCC[C@H](C(N)=O)C2)C(C)C)oc2ccc(F)cc12` [Compound 31, (1S,3S)-3-(3-((S)-1-(5-fluoro-3-methylbenzofuran-2-yl)-2-methylpropyl)ureido) cyclohexane-1-carboxamide], the Kd in assay [1] is 250 to 500 nM. In assay [2] (setting [3]), the IC50 was over 5000 nM.

As to `Cc1c([C@@H](NC(=O)Nc2ccc3c(c2)CNC3=O)C(C)C)oc2ccc(F)cc12` [Compound 33, (S)-1-(1-(5-fluoro-3-methylbenzofuran-2-yl)-2-methylpropyl)-3-(1-oxoisoindolin-5-yl)urea], in assay [1], the Kd is under 100 nM. Moreover, the concentration for half-maximal inhibition (IC50) in assay [2] (setting [3]) is under 1000 nM.

In the case of `Cc1c([C@@H](NC(=O)Nc2ccc3c(c2)C(=O)NC3)C(C)C)oc2ccc(F)cc12` [Compound 34, (S)-1-(1-(5-fluoro-3-methylbenzofuran-2-yl)-2-methylpropyl)-3-(3-oxoisoindolin-5-yl)urea], the dissociation constant (Kd) in assay [1] was under 100 nM. Besides, in assay [2] (setting [3]), the IC50 is 1000 to 5000 nM.

Regarding `Cc1c([C@@H](NC(=O)Nc2cncc(C#N)c2)C(C)C)oc2ccc(F)cc12` [Compound 35, (S)-1-(5-cyanopyridin-3-yl)-3-(1-(5-fluoro-3-methylbenzofuran-2-yl)-2-methylpropyl)urea], in assay [1], the dissociation constant Kd is 250 to 500 nM. Moreover, the IC50 in assay [2] (setting [3]) was 1000 to 5000 nM.

As for `Cc1c([C@@H](NC(=O)Nc2cccnc2)C2CC2)oc2ccc(F)cc12` [Compound 37, (S)-1-(cyclopropyl(5-fluoro-3-methylbenzofuran-2-yl)methyl)-3-(pyridin-3-yl)urea], the dissociation constant (Kd) in assay [1] was at least 500 nM. Moreover, the IC50 in assay [2] (setting [3]) is over 5000 nM.

Consider `Cc1c([C@@H](NC(=O)Nc2cncc(C#N)c2)C2CC2)oc2ccc(F)cc12` [Compound 46, (S)-1-(5-cyanopyridin-3-yl)-3-(cyclopropyl(5-fluoro-3-methylbenzofuran-2-yl)methyl)urea], for which the Kd in assay [1] was at least 500 nM.

For the molecule `COC(=O)N1CCC[C@H](NC(=O)N[C@H](c2oc3ccc(F)cc3c2C)C(C)C)C1` [Compound 55, methyl (S)-3-(3-((S)-1-(5-fluoro-3-methylbenzofuran-2-yl)-2-methylpropyl)ureido)piperidine-1-carboxylate], in assay [1], the dissociation constant (Kd) was at least 500 nM.
